The results in this text go back to patent US12668576B2, “Pyrazolamide derivative, preparation method therefor, and application thereof” (SHENZHEN ZHONGGE BIOLOGICAL TECHNOLOGY CO., LTD., priority 2021, dated 2026).

The assay has as its target T1, EP4 receptor (Homo sapiens, UniProt P35408).
T1 construct: expressed in transfected cells; host or cells: Flp-In CHO cells (Flpin-CHO-EP4)
Briefly: Antagonist activity against EP4 receptor by cAMP assay. Conditions: Flpin-CHO-EP4 cells, PGE2 stimulation, cAMP readout; starting concentration 5 μM, dilution factor 4. Format: cell-based. As for the experimental part:
Eu-CAMP tracer (1/50) was diluted with a lysis buffer and 10 μL was added to per well of the detection plate. Ulight-anti-CAMP (1/150) was diluted with the lysis buffer and 10 μL was added to per well of the detection plate, and incubated at room temperature for 1 h.

T1 sequence (P35408 whole entry): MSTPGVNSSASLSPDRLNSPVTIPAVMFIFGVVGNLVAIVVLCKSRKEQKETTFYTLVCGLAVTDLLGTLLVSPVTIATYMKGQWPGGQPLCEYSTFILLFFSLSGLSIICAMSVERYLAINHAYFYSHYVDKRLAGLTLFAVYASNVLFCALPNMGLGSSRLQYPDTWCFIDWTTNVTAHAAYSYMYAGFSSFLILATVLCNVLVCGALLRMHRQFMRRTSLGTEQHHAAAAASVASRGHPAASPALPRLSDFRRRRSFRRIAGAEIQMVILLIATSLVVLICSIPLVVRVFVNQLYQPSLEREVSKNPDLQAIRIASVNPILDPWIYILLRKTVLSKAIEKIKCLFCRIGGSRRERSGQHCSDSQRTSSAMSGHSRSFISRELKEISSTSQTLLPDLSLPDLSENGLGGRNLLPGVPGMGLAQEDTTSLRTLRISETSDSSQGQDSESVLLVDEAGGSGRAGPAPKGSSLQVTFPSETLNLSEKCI

Consider `C[C@H](NC(=O)c1c(C(F)F)nn(C)c1Oc1cccc(S(F)(F)(F)(F)F)c1)c1ccc(C(=O)O)cc1` [Example 1, 4-(1-(3-(difluoromethyl)-1-methyl-5-(3-(pentafluorothio)phenoxy)-1H-pyrazole-4-carboxamido)ethyl)benzoic acid], for which half-maximal inhibition (IC50) required 6.59 nM.
